From patent publication US20230203043A1, “NOVEL IMIDAZOPYRAZINE DERIVATIVES” (Hoffmann-La Roche Inc., priority 2020, published 2023) come the findings set out here.

This assay concerns Acinetobacter baumannii ATCC17961. The experiment in a line: Antimicrobial susceptibility testing: 90% growth inhibitory concentration (IC90) determination in Iso-Sensitest broth, OD600 growth. Format: cell-based. In a few lines: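 Growth inhibition is calculated during the logarithmic phase from OD600 readings taken every 20 minutes across 16 h at 35±2° C. Bacteria at ~5×10^(5) CFU/ml face twofold dilution series (e.g. 50 to 0.097 μM final).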

Where [1] appears, read: Acinetobacter baumannii, ATCC17961, 16 h, strain ATCC 17961, OD600 growth over 16 h, read-out: A. baumannii ATCC 17961 IC90.
Setting [2] is: Acinetobacter baumannii, ATCC17961, 16 h, read-out: A. baumannii ATCC 17961 IC90 (uM), strain ATCC 17961, OD600 growth over 16 h.

Where a name gives a salt, the structure may show the parent alone. Read-outs that look alike come from different tables or passages of the source.

As to `N#CCn1cc(-c2cnc3c(Nc4ccc(C(=O)NCCNCC(=O)N[C@H]5CCNC5)c(Cl)c4)nccn23)c(C(F)(F)F)n1` [Example 817, (S)-2-chloro-4-((3-(1-(cyanomethyl)-3-(trifluoromethyl)-1H-pyrazol-4-yl)imidazo[1,2-a]pyrazin-8-yl)amino)-N-(2-((2-oxo-2-(pyrrolidin-3-ylamino)ethyl)amino)ethyl) benzamide formate], the IC90 under setting [1] stood at 0.18 µM.

On to `CCc1cc(Nc2nccn3c(-c4cn(C)nc4C(F)(F)F)cnc23)ccc1C(=O)NCCNC(=O)[C@@H]1C[C@](C)(O)CN1` [Example 447, (2S,4S)-N-[2-[[2-ethyl-4-[[3-[1-methyl-3-(trifluoromethyl)pyrazol-4-yl]imidazo[1,2-a]pyrazin-8-yl]amino]benzoyl]amino]ethyl]-4-hydroxy-4-methylpyrrolidine-2-carboxamide formate], for which the IC90 under setting [2] amounted to 4.19 µM.

For `C#CCNCCCNC(=O)c1c(C)cc(Nc2nccn3c(-c4cn(CC#N)nc4C(F)(F)F)cnc23)cc1F` [Example 76, 4-[[3-[1-(cyanomethyl)-3-(trifluoromethyl)pyrazol-4-yl]imidazo[1,2-a]pyrazin-8-yl]amino]-2-fluoro-6-methyl-N-[3-(prop-2-ynylamino)propyl] benzamide], the 90% effect concentration (IC90) (strain ATCC 17961, OD600 growth over 16 h, read-out: A. baumannii ATCC 17961 IC90) is 2.09 µM.

Regarding `N[C@H]1C[C@@H](NC(=O)N2CCN(C(=O)c3ccc(Nc4nccn5c(-c6cn(CC(F)F)nc6C(F)(F)F)cnc45)cc3Cl)CC2)C1` [Example 585, N-((1s,3s)-3-aminocyclobutyl)-4-(2-chloro-4-((3-(1-(2,2-difluoroethyl)-3-(trifluoromethyl)-1H-pyrazol-4-yl)imidazo[1,2-a]pyrazin-8-yl)amino)benzoyl) piperazine-1-carboxamide formate], under setting [1], the IC90 was 0.325 µM.

As to `C[C@@H](NC(=O)c1ccc(Nc2nccn3c(-c4cn(CC#N)nc4C(F)(F)F)cnc23)cc1Cl)C(=O)N1CC[C@H](N)C1` [Example 665, N-[(1R)-2-[(3S)-3-aminopyrrolidin-1-yl]-1-methyl-2-oxo-ethyl]-2-chloro-4-[[3-[1-(cyanomethyl)-3-(trifluoromethyl)pyrazol-4-yl]imidazo[1,2-a]pyrazin-8-yl]amino]benzamide formate], the 90% effect concentration (IC90) under setting [2] turned out to be 0.29 µM.

As for `Cc1cc(Nc2nccn3c(-c4c[nH]nc4C(F)(F)F)cnc23)ccc1S(C)(=O)=NCCCN` (stereo not drawn) [Example 518, ((3-Aminopropyl)imino)(methyl)(2-methyl-4-((3-(3-(trifluoromethyl)-1H-pyrazol-4-yl)imidazo[1,2-α]pyrazin-8-yl)amino)phenyl)-λ^6-sulfanone], the IC90 under setting [1] came to 0.935 µM.

`CCc1cc(Nc2nccn3c(-c4cn(CC(F)F)nc4C(F)(F)F)cnc23)ccc1C(=O)NCC(=O)NCCN(C)C` [Example 668, 4-[[3-[1-(2,2-difluoroethyl)-3-(trifluoromethyl)pyrazol-4-yl]imidazo[1,2-a]pyrazin-8-yl]amino]-N-[2-[2-(dimethylamino)ethylamino]-2-oxo-ethyl]-2-ethyl-benzamide formate]: the IC90 under setting [2] turned out to be 0.294 µM.

Turning to `Cc1cc(Nc2nccn3c(-c4c[nH]nc4C(F)(F)F)cnc23)ccc1C(=O)N1CCN(C(=O)[C@@H]2CCNC2)CC1` [Example 332, [2-methyl-4-[[3-[3-(trifluoromethyl)-1H-pyrazol-4-yl]imidazo[1,2-a]pyrazin-8-yl]amino]phenyl]-[4-[(3R)-pyrrolidine-3-carbonyl]piperazin-1-yl]methanone], under setting [1], the IC90 is 0.509 µM.

`CCc1cc(Nc2nccn3c(-c4c[nH]nc4C(F)(F)F)cnc23)ccc1C(=O)NCCCCCCN` [Example 336, N-(6-aminohexyl)-2-ethyl-4-[[3-[3-(trifluoromethyl)-1H-pyrazol-4-yl]imidazo[1,2-a]pyrazin-8-yl]amino]benzamide hydrochloride]: the 90% effect concentration (IC90) under setting [1] was 0.152 µM.

With `NC1CN(C(=O)N2CCN(C(=O)c3ccc(Nc4nccn5c(-c6c[nH]nc6C(F)(F)F)cnc45)cc3Cl)CC2)C1` [Example 266, [4-(3-aminoazetidine-1-carbonyl)piperazin-1-yl]-[2-chloro-4-[[3-[3-(trifluoromethyl)-1H-pyrazol-4-yl]imidazo[1,2-a]pyrazin-8-yl]amino]phenyl] methanone formate], the IC90 under setting [2] was 0.282 µM.

Consider `C=CCn1cc(-c2cnc3c(Nc4ccc(C(=O)N[C@@H](C)CN)c(CC)c4)nccn23)c(C(F)(F)F)n1` [Example 63, N-[(2S)-1-aminopropan-2-yl]-2-ethyl-4-[[3-[1-prop-2-enyl-3-(trifluoromethyl)pyrazol-4-yl]imidazo[1,2-a]pyrazin-8-yl]amino]benzamide], for which the concentration for an effect of 90% (IC90) under setting [1] is 0.27 µM.

For `C[C@@H](N)C(=O)N1CCN(C(=O)c2ccc(Nc3nccn4c(-c5cn(CC#N)nc5C(F)(F)F)cnc34)cc2Cl)CC1` [Example 188, 2-[4-[8-[4-[4-[(2R)-2-aminopropanoyl]piperazine-1-carbonyl]-3-chloroanilino]imidazo[1,2-a]pyrazin-3-yl]-3-(trifluoromethyl)pyrazol-1-yl]acetonitrile], the IC90 under setting [1] came to 0.197 µM.

As for `CCc1cc(Nc2nccn3c(-c4cn(CC#N)nc4C(F)(F)F)cnc23)ccc1C(=O)NCC(=O)N1CC2(CNC2)C1` [Example 505, 4-[[3-[1-(cyanomethyl)-3-(trifluoromethyl)pyrazol-4-yl]imidazo[1,2-a]pyrazin-8-yl]amino]-N-[2-(2,6-diazaspiro[3.3]heptan-2-yl)-2-oxo-ethyl]-2-ethyl-benzamide formate], under setting [2], the 90% effect concentration (IC90) was 0.449 µM.

Take `NCC(=O)N1CC2(C1)CN(C(=O)c1ccc(Nc3nccn4c(-c5c[nH]nc5C(F)(F)F)cnc34)cc1Cl)C2` [Example 658, 2-amino-1-(6-(2-chloro-4-((3-(3-(trifluoromethyl)-1H-pyrazol-4-yl)imidazo[1,2-a]pyrazin-8-yl)amino)benzoyl)-2,6-diazaspiro[3.3]heptan-2-yl)ethan-1-one]: under setting [1], the IC90 worked out at 0.269 µM.

For `O=C(CN1CCN(C(=O)c2ccc(Nc3nccn4c(-c5cn(CC(F)F)nc5C(F)(F)F)cnc34)cc2Cl)CC1)N1CCNCC1` [Example 608, 2-(4-(2-chloro-4-((3-(1-(2,2-difluoroethyl)-3-(trifluoromethyl)-1H-pyrazol-4-yl)imidazo[1,2-a]pyrazin-8-yl)amino)benzoyl)piperazin-1-yl)-1-(piperazin-1-yl) ethan-1-one formate], under setting [2], the concentration for an effect of 90% (IC90) is 0.936 µM.

With `Cc1cc(Nc2nccn3c(-c4cn(CC#N)nc4C(F)(F)F)cnc23)ccc1C(=O)NCC(=O)N[C@H]1CCNC1` [Example 780, 4-[[3-[1-(cyanomethyl)-3-(trifluoromethyl)pyrazol-4-yl]imidazo[1,2-a]pyrazin-8-yl]amino]-2-methyl-N-[2-oxo-2-[[(3S)-pyrrolidin-3-yl]amino]ethyl] benzamide formate], the IC90 under setting [1] was determined as 1.06 µM.

In the case of `Cc1cc(Nc2nccn3c(-c4c[nH]nc4C(F)(F)F)cnc23)ccc1C(=O)N1CCN(C(=O)[C@@H]2C[C@](C)(O)CN2)CC1` [Example 462, formic acid; [4-[(2S,4S)-4-hydroxy-4-methylpyrrolidine-2-carbonyl]piperazin-1-yl]-[2-methyl-4-[[3-[3-(trifluoromethyl)-1H-pyrazol-4-yl]imidazo[1,2-a]pyrazin-8-yl]amino]phenyl]methanone], the IC90 under setting [2] was determined as 0.964 µM.

Regarding `C#CCn1cc(-c2cnc3c(Nc4ccc(C(=O)NCCOCCN)c(CC)c4)nccn23)c(C(F)(F)F)n1` [Example 174, N-[2-(2-aminoethoxy)ethyl]-2-ethyl-4-[[3-[1-prop-2-ynyl-3-(trifluoromethyl)pyrazol-4-yl]imidazo[1,2-a]pyrazin-8-yl]amino]benzamide], the 90% effect concentration (IC90) under setting [1] was 0.081 µM.

As for `N#CCn1cc(-c2cnc3c(Nc4ccc(C(=O)N5CCN(C(=O)CC6CCNCC6)CC5)c(Cl)c4)nccn23)c(C(F)(F)F)n1` [Example 572, 2-(4-(8-((3-chloro-4-(4-(2-(piperidin-4-yl)acetyl)piperazine-1-carbonyl)phenyl)amino)imidazo[1,2-a]pyrazin-3-yl)-3-(trifluoromethyl)-1H-pyrazol-1-yl)acetonitrile formate], the IC90 under setting [2] is 0.291 µM.

Regarding `CNC(=O)c1ccc(Nc2nccn3c(-c4cn(Cc5cccc(CCN)c5)nc4C(F)(F)F)cnc23)cc1Cl` [Example 595, 4-((3-(1-(3-(2-aminoethyl)benzyl)-3-(trifluoromethyl)-1H-pyrazol-4-yl)imidazo[1,2-a]pyrazin-8-yl)amino)-2-chloro-N-methylbenzamide formate], under setting [2], the 90% effect concentration (IC90) was determined as 0.186 µM.

As for `O=C(NC1CCC(NC(=O)[C@H]2C[C@H](O)CN2)C1)c1ccc(Nc2nccn3c(-c4c[nH]nc4C(F)(F)F)cnc23)cc1Cl` (mixture of isomers) [Example 373, rac-(2R,4S)-N-[3-[[2-chloro-4-[[3-[3-(trifluoromethyl)-1H-pyrazol-4-yl]imidazo[1,2-a]pyrazin-8-yl]amino]benzoyl]amino]cyclopentyl]-4-hydroxypyrrolidine-2-carboxamide], under setting [1], the IC90 was 1.11 µM.

`O=C(c1ccc(Nc2nccn3c(-c4cn(Cc5cc[nH]n5)nc4C(F)(F)F)cnc23)cc1Cl)N1CCNCC1` [Example 177, [2-chloro-4-[[3-[1-(1H-pyrazol-3-ylmethyl)-3-(trifluoromethyl)pyrazol-4-yl]imidazo[1,2-a]pyrazin-8-yl]amino]phenyl]-piperazin-1-ylmethanone]: under setting [1], the IC90 was determined as 0.11 µM.

Take `CCc1cc(Nc2nccn3c(-c4c[nH]nc4C(F)(F)F)cnc23)ccc1C(=O)NCCCNC(=O)[C@H]1C[C@H](N)C1` [Example 532, N-(3-((1r,3r)-3-aminocyclobutane-1-carboxamido)propyl)-2-ethyl-4-((3-(3-(trifluoromethyl)-1H-pyrazol-4-yl)imidazo [1,2-a]pyrazin-8-yl)amino)benzamide formate]: the IC90 under setting [1] was 0.245 µM.

As usually defined, the IC90 is the concentration needed for an effect of 90%.
